pIC50: −log10 of the molar value.
Legend:
HT29 = assay: Potentiation assay (MTS, 72 hours); type: cell-based, human; settings: IC50(cytotoxic agent alone) / IC50(combination treatment)
Procedure: (§1) 5 × 10^3 cells per well were seeded in 96-well plates and incubated overnight. […] The effect on cell proliferation was determined using a CellTiter 96 AQueous One Solution Cell Proliferation Assay (MTS, Promega).

H460 = assay: Potentiation assay (MTS, 72 hours); type: cell-based, human; settings: IC50(cytotoxic agent alone) / IC50(combination treatment)
Procedure: as §1

HCT116 = assay: Potentiation assay (MTS, 72 hours); type: cell-based, human; settings: IC50(cytotoxic agent alone) / IC50(combination treatment)
Procedure: as §1

SW620 = assay: Potentiation assay (MTS, 72 hours); type: cell-based, human; settings: IC50(cytotoxic agent alone) / IC50(combination treatment)
Procedure: as §1

PC3 = assay: Potentiation assay (MTS, 72 hours); type: cell-based, human; settings: IC50(cytotoxic agent alone) / IC50(combination treatment)
Procedure: as §1

Colo205 = assay: Potentiation assay (MTS, 72 hours); type: cell-based, human; settings: IC50(cytotoxic agent alone) / IC50(combination treatment)
Procedure: as §1

NCI-H520 = assay: Potentiation assay (MTS, 72 hours); type: cell-based, human; settings: IC50(cytotoxic agent alone) / IC50(combination treatment)
Procedure: as §1

A549 = assay: Potentiation assay (MTS, 72 hours); type: cell-based, human; settings: IC50(cytotoxic agent alone) / IC50(combination treatment)
Procedure: as §1

Chk1 = molecular target: T1, Chk1 (Homo sapiens, UniProt O14757); assay: In vitro kinase assay, Chk1; type: biochemical; settings: for LE: ligand efficiency, Chk1
T1 sequence (O14757 1-476): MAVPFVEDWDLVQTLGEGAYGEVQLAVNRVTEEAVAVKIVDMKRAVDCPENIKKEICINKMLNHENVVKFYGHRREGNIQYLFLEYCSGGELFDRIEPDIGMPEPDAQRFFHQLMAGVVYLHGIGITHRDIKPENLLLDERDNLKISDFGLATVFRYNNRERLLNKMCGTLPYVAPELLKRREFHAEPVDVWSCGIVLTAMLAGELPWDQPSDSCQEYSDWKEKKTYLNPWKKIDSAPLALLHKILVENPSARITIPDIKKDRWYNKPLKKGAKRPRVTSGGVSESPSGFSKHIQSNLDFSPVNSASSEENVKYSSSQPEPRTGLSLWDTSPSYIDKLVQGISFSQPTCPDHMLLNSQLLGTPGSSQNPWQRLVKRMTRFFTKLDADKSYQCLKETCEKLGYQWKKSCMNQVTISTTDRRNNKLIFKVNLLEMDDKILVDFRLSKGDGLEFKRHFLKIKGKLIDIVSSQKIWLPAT
Procedure: Kinase assays were performed as previously described.

SW620 xenograft = SW620 xenograft antitumor efficacy; settings: for Median TTE: SW620, 100 mg/kg irinotecan alone (V158411 0 mg/kg); for %TGD / T-C: SW620, 100 mg/kg irinotecan alone
Description: (§2) Xenograft studies were undertaken by Charles River Laboratories Discovery Services, North Carolina. On the day of tumor cell implant, Colo205 cells were harvested and resuspended in 50% Matrigel matrix (BD Biosciences) in PBS at a concentration of 5 × 10^6 cells/mL. Each test mouse received 1 × 10^6 Colo205 cells implanted subcutaneously (SC) in the flank of female athymic nude mice (HRLN or NCr nu/nu), and tumor growth was monitored as the average size approached 100-150 mm^3. The SW620 tumor line was maintained by serial SC transplantation in female athymic nude mice (HRLN nu/nu). Tumor fragments, approximately 1 mm^3 each, were implanted SC into the right flank of each animal and allowed to grow towards a target size of 100-150 mm^3. On day 1 of the study, tumors were randomized into treatment groups before compound administration.
(§3) V158411 was formulated in D5W and administered via IV injection into the tail vein. Cyclic treatment regimens were followed and treatment ranged from 2-3 cycles.
(§4) Tumor size was measured with electronic calipers and tumor volume calculated according to the formula ((width × width) × length) /2.
(§5) The study endpoint was defined as a tumor volume of 750 mm^3 for Colo205 or 1500 mm^3 for SW620, or day 60, whichever came first. Each animal was euthanized when its' tumor reached this endpoint. The time to endpoint (TTE) for each mouse was calculated from the equation TTE = (log10(endpoint volume)-b)/m where b is the intercept and m the slope of the line obtained by linear regression of a log-transformed tumor growth data set.

Colo205 xenografts = assay: Colo205 xenograft antitumor efficacy; type: in vivo; settings: Colo205, 75 mg/kg IP irinotecan alone (V158411 0 mg/kg)
Description: as §2, §3, §4, §5

| Structure (SMILES) | Fold Potentiation by V158411 (400nM) (HT29) | Fold Potentiation by V158411 (400nM) (H460) | Fold Potentiation by V158411 (400nM) (HCT116) | Fold Potentiation by V158411 (400nM) (SW620) | Fold Potentiation by V158411 (400nM) (PC3) | Fold Potentiation by V158411 (400nM) (Colo205) | Fold Potentiation by V158411 (400nM) (NCI-H520) | Fold Potentiation by V158411 (400nM) (A549) | pIC50 (Chk1) | other results |
| --- | --- | --- | --- | --- | --- | --- | --- | --- | --- | --- |
| CCc1c2c(nc3ccc(O)cc13)-c1cc3c(c(=O)n1C2)COC(=O)[C@]3(O)CC [SN38] | 18.7 fold | 1.0 fold | 1.3 fold | 7.6 fold | > 10 fold | > 10 fold | – | – | – | – |
| Nc1ccn([C@@H]2O[C@H](CO)[C@@H](O)C2(F)F)c(=O)n1 [Gemcitabine] | 27.1 fold | 4.5 fold | 1.5 fold | 3.0 fold | 6.7 fold | 8.4 fold | 8.9 fold | 4.5 fold | – | – |
| Cn1cc(NC(=O)c2c[nH]c(=O)c(-c3cc4ccccc4[nH]3)c2)cn1 [VER-155175] | – | – | – | – | – | – | – | – | < 3.40 | Chk1 IC50 (Chk1): disappointing affinity |
| CCc1c2c(nc3ccc(OC(=O)N4CCC(N5CCCCC5)CC4)cc13)-c1cc3c(c(=O)n1C2)COC(=O)[C@]3(O)CC [Irinotecan, reference compound] | – | – | – | – | – | – | – | – | – | Median TTE (SW620 xenograft; study with 30 mg/kg V158411, endpoint 1500 mm^3): 24.1 days; Median TTE (SW620 xenograft; study with 60 mg/kg V158411, endpoint 1500 mm^3): 24.1 days; %TGD (SW620 xenograft; study with 30 mg/kg V158411): 81%; T-C (SW620 xenograft; study with 30 mg/kg V158411): 10.8; %TGD (SW620 xenograft; study with 60 mg/kg V158411): 75%; T-C (SW620 xenograft; study with 60 mg/kg V158411): 10.3; %TGD (Colo205 xenografts): 78%; T-C (Colo205 xenografts): 15.5; Median TTE (Colo205 xenografts; q7d 3 cycles, endpoint 750 mm^3): 35.4 days |
| CC[C@@]1(O)C(=O)OCc2c1cc1n(c2=O)Cc2cc3ccccc3nc2-1 [Camptothecin] | 11.4 fold | 0.8 fold | 0.8 fold | 10.6 fold | 6.3 fold | 6.0 fold | 1.8 fold | 0.7 fold | – | – |
| CCNC(=O)c1c[nH]c(=O)c(-c2cc3ccccc3[nH]2)c1 [VER-154931] | – | – | – | – | – | – | – | – | 5.38 | Chk1 IC50 (Chk1): low μM inhibitor |
| O=c1[nH]cccc1-c1nc2ccccc2[nH]1 [VER-154637] | – | – | – | – | – | – | – | – | ~4.00 | LE (Chk1): > 0.30 |
| O=C(Nc1c[nH]c(=O)c(-c2cc3ccccc3[nH]2)c1)c1cnn(Cc2ccccc2)c1 [VER-155991] | – | – | – | – | – | – | – | – | 8.12 | increase in potency (Chk1; Chk1 IC50, inversion of the amide linker, versus VER-155422): 2 fold |
| N.N.[Cl][Pt][Cl] [Cisplatin] | 10.1 fold | 0.7 fold | 0.6 fold | 2.5 fold | 1.7 fold | 5.3 fold | 1.9 fold | 0.8 fold | – | – |
| O=C(Nc1cnn(Cc2ccccc2)c1)c1c[nH]c(=O)c(-c2cc3ccccc3[nH]2)c1 [VER-155422] | – | – | – | – | – | – | – | – | 7.77 | LE (Chk1): 0.35 |
